Patent EP0394868A1, “New antibiotics NK372135, process for the production thereof and use thereof” (Nippon Kayaku Kabushiki Kaisha, priority 1989, dated 1990)
Converted amounts (≈) assume the structure as drawn.

How the values were obtained:
Format in all cases: cell-based
[1] = target: T1, 5-lipoxygenase (Cavia porcellus, UniProt A0A286X958); assay: 5-lipoxygenase inhibitory activity in ionophore-stimulated peritoneal cells (5-HETE by HPLC); details: Guinea pig peritoneal cells, ionophore A 23187 + arachidonic acid
T1 construct: the peritoneal cells of the animals were collected; endogenous in cells; host or cells: casein-elicited peritoneal cells of Hartley guinea pigs
T1 sequence (A0A286X958 1-674): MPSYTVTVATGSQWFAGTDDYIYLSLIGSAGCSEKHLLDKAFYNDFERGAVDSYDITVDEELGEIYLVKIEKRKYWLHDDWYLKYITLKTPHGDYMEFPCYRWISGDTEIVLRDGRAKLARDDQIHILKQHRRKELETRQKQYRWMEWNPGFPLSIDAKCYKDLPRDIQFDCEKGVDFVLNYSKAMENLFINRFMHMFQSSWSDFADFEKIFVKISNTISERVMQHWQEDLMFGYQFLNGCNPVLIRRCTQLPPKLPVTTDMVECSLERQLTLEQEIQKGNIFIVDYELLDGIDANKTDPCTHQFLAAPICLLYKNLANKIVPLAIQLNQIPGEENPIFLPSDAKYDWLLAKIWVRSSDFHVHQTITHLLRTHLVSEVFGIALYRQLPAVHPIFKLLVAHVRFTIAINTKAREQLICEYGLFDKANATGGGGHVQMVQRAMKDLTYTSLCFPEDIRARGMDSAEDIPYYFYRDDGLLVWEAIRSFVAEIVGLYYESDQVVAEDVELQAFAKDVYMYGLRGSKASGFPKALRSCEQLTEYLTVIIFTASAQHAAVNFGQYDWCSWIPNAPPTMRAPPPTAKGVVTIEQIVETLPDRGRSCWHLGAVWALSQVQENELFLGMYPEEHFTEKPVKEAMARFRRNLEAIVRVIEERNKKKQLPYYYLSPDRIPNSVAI
Method: The 5-lipoxygenase inhibitory activities of the compounds of the present invention were examined.
The 5-lipoxygenase inhibitory activity was evaluated from the inhibitory activity on ionophore stimulation on Guinea pig peritoneal cells in the following manner.
A 2% casein solution was intraperitoneally administered to Hartley Guinea pigs weighing 250 to 350 g. 18 hours after the administration, the peritoneal cells of the animals were collected. The contaminating erythrocytes were hemolyzed and centrifuged. To the cell fraction thus obtained was added a 50 mM phosphate buffer solution (pH 7.0) containing […] of indomethacin and the concentration of the peritoneal cells was adjusted to 1 x 10⁷ cell/-ml. To 1.0 ml of the cell suspension thus obtained, a test compound of various concentrations was added so as to give a final concentration of 100 µM. Then the mixture was incubated at 37°C for five minutes. Next, 1.0 µg of lonophore A 23187 and 10 µg of arachidonic acid were added thereto and the reaction was initiated. After 20 minutes, the reaction was ceased by adding 4 ml of ethanol. The reaction supernatant was analyzed by HPLC in accordance with the method of Amano et al. [Vitamin, 59, 211 - 219 (1985)] so as to detect 5-hydroxyeicosatetraenoic acid (5-HETE) which was a metabolite derived from arachidonic acid.

[2] = system: SW1116; assay: Cytotoxicity, growth inhibition by methylene blue method; details: Homo sapiens, SW 1116, 96 h, RPMI 1640, 10% fetal calf serum, two to four days with compound, read-out: Cytotoxicity IC₅₀
Method: (§1) The cytotoxicities of NK372135A, B and C and methoxy-xanthocillin monomethyl ether (XTM) which is an analog thereof were examined. 2,000 cells of each of G361, SW1116, PC-3 and Li-7 cell strains were inoculated into a 96-well plate and incubated at 37°C under 5% CO₂ for 24 hours. An RPMI 1640 medium containing 10% of fetal calf serum was employed as a medium. After incubating for 24 hours, a test compound of a given concentration was added thereto and the incubation was further conducted for two to four days. Subsequently, the cells were counted by the methylene blue method so as to evaluate the extent of the growth inhibition.

[3] = system: G361; assay: as above; details: Homo sapiens, G-361, 96 h, RPMI 1640, 10% fetal calf serum, two to four days with compound, read-out: Cytotoxicity IC₅₀
Method: as §1

[4] = system: Li-7; assay: as above; details: RPMI 1640, 10% fetal calf serum, two to four days with compound; for IC50: 96 h, read-out: Cytotoxicity IC₅₀
Method: as §1

[5] = system: PC-3; assay: as above; details: Homo sapiens, 96 h, RPMI 1640, 10% fetal calf serum, two to four days with compound, read-out: Cytotoxicity IC₅₀
Method: as §1

[6] = system: Fusarium roseum; assay: Antimicrobial spectrum, paper disc agar diffusion; details: Fusarium sambucinum, read-out: Diameter of inhibition zone (mm)
Method: (§2) The antimicrobial spectra of the compounds of the present invention were examined.
(§3) Table 1 gives the antimicrobial spectra of NK372135A, C and D. A paper disc of 8 mm in diameter was immersed in a solution containing 100 µg/ml of NK372135A, C or D and then placed on an agar medium in which a test strain had been grown. Regarding the four strains listed in the upper part of Table 1 and Candida albicans, each culture was conducted at 37°C for a day and night, while other strains were cultured at 25°C for a day and night. Then the diameter of each inhibition zone thus formed was measured. […] Since no existing antifungal agent exerts a satisfactory effect on fungi, the compounds of the present invention are highly expected as effective antifungal agents.

[7] = system: Bacillus subtilis; assay: Antimicrobial spectrum, paper disc agar diffusion; details: 8 mm paper disc, 100 µg/ml solution, 37°C for a day and night, read-out: Diameter of inhibition zone (mm)
Method: as §2, §3

[8] = system: Candida albicans; assay: Antimicrobial spectrum, paper disc agar diffusion; details: 8 mm paper disc, 100 µg/ml solution, 37°C for a day and night, read-out: Diameter of inhibition zone (mm)
Method: as §2, §3

[9] = system: Mycosphaerella melonis; assay: Antimicrobial spectrum, paper disc agar diffusion; details: 8 mm paper disc, 100 µg/ml solution, 25°C for a day and night, read-out: Diameter of inhibition zone (mm)
Method: as §2, §3

[10] = system: Escherichia coli; assay: Antimicrobial spectrum, paper disc agar diffusion; details: 8 mm paper disc, 100 µg/ml solution, 37°C for a day and night, read-out: Diameter of inhibition zone (mm)
Method: as §2, §3

[11] = system: Staphylococcus aureus; assay: Antimicrobial spectrum, paper disc agar diffusion; details: 8 mm paper disc, 100 µg/ml solution, 37°C for a day and night, read-out: Diameter of inhibition zone (mm)
Method: as §2, §3

[12] = system: Trichophyton mentagrophytes; assay: Antimicrobial spectrum, paper disc agar diffusion; details: 8 mm paper disc, 100 µg/ml solution, 25°C for a day and night, read-out: Diameter of inhibition zone (mm)
Method: as §2, §3

[13] = system: Mycobacterium smegmatis; assay: Antimicrobial spectrum, paper disc agar diffusion; details: Mycolicibacterium smegmatis, 8 mm paper disc, 100 µg/ml solution, 37°C for a day and night, read-out: Diameter of inhibition zone (mm)
Method: as §2, §3

[14] = system: Saccharomyces cerevisiae; assay: Antimicrobial spectrum, paper disc agar diffusion; details: 8 mm paper disc, 100 µg/ml solution, 25°C for a day and night, read-out: Diameter of inhibition zone (mm)
Method: as §2, §3

[15] = system: Aspergillus oryzae; assay: Antimicrobial spectrum, paper disc agar diffusion; details: 8 mm paper disc, 100 µg/ml solution, 25°C for a day and night, read-out: Diameter of inhibition zone (mm)
Method: as §2, §3

[16] = system: Botrytis fabae; assay: Antimicrobial spectrum, paper disc agar diffusion; details: 8 mm paper disc, 100 µg/ml solution, 25°C for a day and night, read-out: Diameter of inhibition zone (mm)
Method: as §2, §3

[17] = system: Mucor japonicus; assay: Antimicrobial spectrum, paper disc agar diffusion; details: 8 mm paper disc, 100 µg/ml solution, 25°C for a day and night, read-out: Diameter of inhibition zone (mm)
Method: as §2, §3

[18] = system: Candida albicans; assay: Anti-Candida activity, growth in bouillon medium (absorbance at 595 nm); details: Candida albicans 2 x 10³ cell/well, 30°C for 16 hours
Method: The anti-Candida activity of NK372135B was compared with that of methoxy-xanthocillin X dimethyl ether which is shown in The Journal of Antibiotics Vol 34 (1981) No. 12, P1556 ∼ 1561.
Candida albicans was inoculated into a 96-well plate at a density of 2 x 10³ cell/well with the use of 0.2 cc of a bouillon medium. Then a test compound of various concentrations was added thereto and the microorganism was incubated at 30°C for 16 hours. Then the absorbance of each well at 595 nm was measured and IC₅₀ was calculated from the dose response curve. […] Thus it was found out that the saturation of the double bond in methoxy-xanthocillin X dimethyl ether enhanced the anti-Candida activity.

[C-]#[N+]C(=Cc1ccc(OC)cc1)C(Cc1ccc(OC)cc1)[N+]#[C-] (centres unmarked) [NK372135A] was tested, and the “Inhibition ratio (%)” value ([1]; 10⁻⁴ mol/ℓ) was 37.1%, the “Inhibition ratio (%)” value ([1]; 10⁻⁵ mol/ℓ) was 5.0% and the “Inhibition ratio (%)” value ([1]; 10⁻⁶ mol/ℓ) was 0%. For the same compound, the IC50 [2] was 1.65 µg/mL (≈ 5.18 µM), the IC50 [3] was 2.13 µg/mL (≈ 6.69 µM) and the IC50 [4] was 1.45 µg/mL (≈ 4.55 µM). The IC50 [5] was 1.05 µg/mL (≈ 3.3 µM), the zone of inhibition at 100 µg/mL [6] was 9 mm and the zone of inhibition at 100 µg/mL [7] was 21.5 mm. For the same compound, the zone of inhibition at 100 µg/mL [8] was 30 mm, the zone of inhibition at 100 µg/mL [9] was 18 mm and the zone of inhibition at 100 µg/mL [10] was 20 mm. It also gave a zone of inhibition at 100 µg/mL [11] of 20.5 mm, a zone of inhibition at 100 µg/mL [12] of 30 mm and a zone of inhibition at 100 µg/mL [13] of 21 mm. For the same compound, the zone of inhibition at 100 µg/mL [14] was 25 mm, the zone of inhibition at 100 µg/mL [15] was 20 mm and the zone of inhibition at 100 µg/mL [16] was 25 mm. For the same compound, the zone of inhibition at 100 µg/mL [17] was 15 mm.
In the case of [C-]#[N+]C(=Cc1ccc(OC)c(OC)c1)C(Cc1ccc(OC)cc1)[N+]#[C-] (centres unmarked) [NK372135B], the IC50 ([18]; read-out: IC₅₀) is reported as 1.5 µg/mL (≈ 4.31 µM), the “Inhibition ratio (%)” value ([1]; 10⁻⁴ mol/ℓ) is reported as 33.3% and the “Inhibition ratio (%)” value ([1]; 10⁻⁵ mol/ℓ) is reported as 5.0%. For the same compound, the “Inhibition ratio (%)” value ([1]; 10⁻⁶ mol/ℓ) was 0%, the IC50 [2] was 2.55 µg/mL (≈ 7.32 µM) and the IC50 [3] was 2.4 µg/mL (≈ 6.89 µM). It also gave an IC50 [4] of 1.8 µg/mL (≈ 5.17 µM) and an IC50 [5] of 0.76 µg/mL (≈ 2.18 µM).
In the case of [C-]#[N+]C(=Cc1ccc(OC)c(O)c1)C(Cc1ccc(OC)cc1)[N+]#[C-] (centres unmarked) [NK372135C], the “Inhibition ratio (%)” value ([1]; 10⁻⁴ mol/ℓ) is reported as 100%, the “Inhibition ratio (%)” value ([1]; 10⁻⁵ mol/ℓ) is reported as 25.5% and the “Inhibition ratio (%)” value ([1]; 10⁻⁶ mol/ℓ) is reported as 12.9%. For the same compound, the IC50 [2] was 5.89 µg/mL (≈ 17.6 µM), the IC50 [3] was 2.52 µg/mL (≈ 7.54 µM) and the IC50 [4] was 1.7 µg/mL (≈ 5.08 µM). The IC50 [5] was 1.23 µg/mL (≈ 3.68 µM), the zone of inhibition at 100 µg/mL [6] was 12 mm and the zone of inhibition at 100 µg/mL [7] was 28 mm. It also gave a zone of inhibition at 100 µg/mL [8] of 25 mm, a zone of inhibition at 100 µg/mL [9] of 19 mm and a zone of inhibition at 100 µg/mL [10] of 29 mm. For the same compound, the zone of inhibition at 100 µg/mL [11] was 26 mm, the zone of inhibition at 100 µg/mL [12] was 30 mm and the zone of inhibition at 100 µg/mL [14] was 25 mm. It also gave a zone of inhibition at 100 µg/mL [15] of 21 mm, a zone of inhibition at 100 µg/mL [16] of 25 mm and a zone of inhibition at 100 µg/mL [17] of 17 mm.
Work on [C-]#[N+]C(=C\c1ccc(OC)cc1)/C(=C/c1ccc(OC)c(OC)c1)[N+]#[C-] [methoxy-xanthocillin X dimethyl ether, reference compound] yielded an IC₅₀ [18] of 9.0 µg/mL.
In the case of “methoxy-xanthocillin monomethyl ether [XTM, reference compound]”, the “Cytotoxicity IC₅₀” value [4] is reported as 0.57 µg/mL.
